Laboratory results taken from article PMC8839659, “Evolution of DIMBOA-Glc O-Methyltransferases from Flavonoid O-Methyltransferases in the Grasses” (Molecules, 2022).

What was measured:
Assay in all cases: LC-MS/MS product formation
Type in all cases: biochemical
ZmBX12 = target: T1, ZmBX12 (Zea mays, UniProt S5S8L0); details: SAM cosubstrate 100 µM, 20 µM substrate, pH 7, 25 °C, 1 h
T1 construct: pASK-IBA37plus, N-terminal His tag, E. coli BL21(DE3), purified
T1 sequence (S5S8L0 1-370): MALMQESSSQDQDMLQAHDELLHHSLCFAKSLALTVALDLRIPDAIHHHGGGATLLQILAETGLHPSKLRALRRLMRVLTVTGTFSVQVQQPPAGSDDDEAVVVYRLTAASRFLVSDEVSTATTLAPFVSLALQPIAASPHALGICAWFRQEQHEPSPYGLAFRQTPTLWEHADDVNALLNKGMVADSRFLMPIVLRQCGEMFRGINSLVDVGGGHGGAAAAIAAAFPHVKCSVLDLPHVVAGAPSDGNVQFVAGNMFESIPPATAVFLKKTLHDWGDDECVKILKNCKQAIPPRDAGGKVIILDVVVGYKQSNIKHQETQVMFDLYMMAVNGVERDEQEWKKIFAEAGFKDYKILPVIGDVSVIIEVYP

ZmBX14 = target: T2, ZmBX14 (Zea mays, UniProt A0A1P8SEU3); details: SAM cosubstrate 100 µM, 20 µM substrate, pH 7, 25 °C, 1 h
T2 construct: pASK-IBA37plus, N-terminal His tag, E. coli BL21(DE3), purified
T2 sequence (A0A1P8SEU3 1-366): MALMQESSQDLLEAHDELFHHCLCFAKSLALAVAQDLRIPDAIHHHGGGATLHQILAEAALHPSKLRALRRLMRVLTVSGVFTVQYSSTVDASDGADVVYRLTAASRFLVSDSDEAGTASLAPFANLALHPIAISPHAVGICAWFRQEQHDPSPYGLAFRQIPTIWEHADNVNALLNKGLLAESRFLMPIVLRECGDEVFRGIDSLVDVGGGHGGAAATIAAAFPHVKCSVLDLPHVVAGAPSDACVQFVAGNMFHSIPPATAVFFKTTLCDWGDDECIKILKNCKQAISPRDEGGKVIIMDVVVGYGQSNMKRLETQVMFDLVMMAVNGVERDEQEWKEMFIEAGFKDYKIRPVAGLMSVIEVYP

ZnBX10 = target: T3, ZnBX10 (Zea nicaraguensis, UniProt Z9J3M6HYI4); details: SAM cosubstrate 100 µM, 20 µM substrate, pH 7, 25 °C, 1 h
T3 construct: full-length ORF, codon-optimized synthetic gene in pET100/D-TOPO, N-terminal His tag, E. coli BL21(DE3), purified
T3 sequence (Z9J3M6HYI4 1-373): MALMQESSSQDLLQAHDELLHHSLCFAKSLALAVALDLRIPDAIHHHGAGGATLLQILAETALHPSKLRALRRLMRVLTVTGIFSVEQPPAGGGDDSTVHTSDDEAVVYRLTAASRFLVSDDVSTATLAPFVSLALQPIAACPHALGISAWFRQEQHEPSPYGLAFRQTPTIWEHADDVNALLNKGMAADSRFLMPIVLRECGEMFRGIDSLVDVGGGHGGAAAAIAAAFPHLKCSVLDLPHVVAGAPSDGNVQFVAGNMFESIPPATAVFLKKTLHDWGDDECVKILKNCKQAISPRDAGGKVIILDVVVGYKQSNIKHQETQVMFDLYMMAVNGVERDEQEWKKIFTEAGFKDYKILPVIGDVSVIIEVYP

ZmBX10 = target: T4, ZmBX10 (Zea mays, UniProt S5S768); details: SAM cosubstrate 100 µM; 20 µM substrate; pH 7; 25 °C; 1 h; product isokaempferide
T4 construct: pASK-IBA37plus, N-terminal His tag, E. coli BL21(DE3), purified
T4 sequence (S5S768 1-375): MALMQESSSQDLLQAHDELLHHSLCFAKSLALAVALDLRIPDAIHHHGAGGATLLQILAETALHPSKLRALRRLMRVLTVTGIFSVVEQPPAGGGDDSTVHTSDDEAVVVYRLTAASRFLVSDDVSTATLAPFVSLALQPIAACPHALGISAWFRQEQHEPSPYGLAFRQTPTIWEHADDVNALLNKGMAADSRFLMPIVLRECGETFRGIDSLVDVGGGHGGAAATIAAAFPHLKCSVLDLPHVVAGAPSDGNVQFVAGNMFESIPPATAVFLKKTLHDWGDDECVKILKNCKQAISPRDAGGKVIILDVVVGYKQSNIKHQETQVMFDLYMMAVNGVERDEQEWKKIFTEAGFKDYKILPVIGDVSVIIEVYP

ZmBX11 = target: T5, ZmBX11 (Zea mays, UniProt S5RK83); details: SAM cosubstrate 100 µM; 20 µM substrate; pH 7; 25 °C; 1 h; product isokaempferide
T5 construct: pASK-IBA37plus, N-terminal His tag, E. coli BL21(DE3), purified
T5 sequence (S5RK83 1-375): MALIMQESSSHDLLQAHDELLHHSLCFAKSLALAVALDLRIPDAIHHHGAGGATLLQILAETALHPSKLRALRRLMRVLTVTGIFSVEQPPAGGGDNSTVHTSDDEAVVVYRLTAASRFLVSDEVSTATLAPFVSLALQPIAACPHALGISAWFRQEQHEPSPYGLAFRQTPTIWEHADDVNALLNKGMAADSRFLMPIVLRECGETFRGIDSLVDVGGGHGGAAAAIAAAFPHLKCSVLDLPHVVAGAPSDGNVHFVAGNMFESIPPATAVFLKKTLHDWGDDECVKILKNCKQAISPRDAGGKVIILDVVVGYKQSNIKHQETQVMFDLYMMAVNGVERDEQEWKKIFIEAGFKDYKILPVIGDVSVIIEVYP

SbFOMT2 = target: T6, SbFOMT2 (Sorghum bicolor, UniProt C5WYJ6); details: SAM cosubstrate 100 µM; 20 µM substrate; pH 7; 25 °C; 1 h; flavonoid 5-O-methylation, trace isokaempferide
T6 construct: gene SORBI_3001G354400; full-length ORF from leaf cDNA, in pET100/D-TOPO or pASK-IBA37plus, N-terminal His tag, E. coli BL21(DE3), purified
T6 sequence (C5WYJ6 1-365): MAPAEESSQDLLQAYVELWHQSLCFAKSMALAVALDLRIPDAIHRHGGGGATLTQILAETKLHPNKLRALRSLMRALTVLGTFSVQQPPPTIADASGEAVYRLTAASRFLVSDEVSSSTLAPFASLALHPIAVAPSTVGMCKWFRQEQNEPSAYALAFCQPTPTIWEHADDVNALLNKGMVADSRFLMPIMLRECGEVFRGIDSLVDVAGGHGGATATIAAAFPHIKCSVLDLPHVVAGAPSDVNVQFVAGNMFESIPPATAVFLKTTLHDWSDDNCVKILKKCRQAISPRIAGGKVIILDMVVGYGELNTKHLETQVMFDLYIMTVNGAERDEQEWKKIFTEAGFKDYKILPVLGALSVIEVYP

[1] = product HDMBOA-Glc, positive control

SMILES	LC-MS/MS product formation (ZmBX12; [1])	LC-MS/MS product formation (ZmBX14; [1])	LC-MS/MS product formation (ZnBX10; product HDMBOA-Glc)	LC-MS/MS product formation (ZmBX12; product isokaempferide)	LC-MS/MS product formation (ZmBX14; lowest activity of the maize BX OMTs)	LC-MS/MS product formation (ZmBX10)	LC-MS/MS product formation (ZmBX11)	LC-MS/MS product formation (ZnBX10; product isokaempferide)	LC-MS/MS product formation (SbFOMT2)
COc1ccc2c(c1)O[C@H](O[C@@H]1O[C@H](CO)[C@@H](O)[C@H](O)[C@H]1O)C(=O)N2O [DIMBOA-Glc, 2,4-dihydroxy-7-methoxy-1,4-benzoxazin-3-one glucoside]	Besides ZmBX14 and ZmBX12, ZnBX10 also converted DIMBOA-Glc to HDMBOA-Glc	Besides ZmBX14 and ZmBX12, ZnBX10 also converted DIMBOA-Glc to HDMBOA-Glc	ZnBX10 also converted DIMBOA-Glc to HDMBOA-Glc	–	–	–	–	–	–
O=c1c(O)c(-c2ccc(O)cc2)oc2cc(O)cc(O)c12 [kaempferol]	–	–	–	with ZmBX12 as the most active OMT, followed by ZmBX10, ZmBX11, and ZmBX14	with ZmBX12 as the most active OMT, followed by ZmBX10, ZmBX11, and ZmBX14	ZmBX10-12 and ZnBX10 produced substantial amounts of the 3-O-methylated derivative isokaempferide	ZmBX10-12 and ZnBX10 produced substantial amounts of the 3-O-methylated derivative isokaempferide	ZmBX10-12 and ZnBX10 produced substantial amounts of the 3-O-methylated derivative isokaempferide	ZmFOMT2 and SbFOMT2 produced only trace amounts of this compound
